Assay results published in patent US5571816A, “Pyrimidines” (Hoechst Aktiengesellschaft, priority 1992, dated 1996).
Where a name gives a salt, the structure may show the parent alone. Read-outs that look alike come from different tables or passages of the source.

Key:
[1] = Solubility in water of salts (and free bases); format: physicochemical; conditions: Table 2, salts of compounds I, temp. by No. [°C]: 1 25.5, 2 23.0, 3 22.4, 4 22.4, 5 22.0, 6 25.0, 7 25.5, 8 25.5, 9 25.5, 10 23.5, 11 23.5, 12 25.0, 13 24.0, 14 23.0, 15 22.0, 16 24.5, 17 22.5, 18 22.0; for solubility: water, read-out: Solubility in water, Concentration in % by wt.
LDL receptor mRNA [2] = experiment: Stimulation of LDL receptor mRNA expression in HepG2 cells (Northern blot); format: cell-based; conditions: Homo sapiens; HepG2, 2 × 10^-6 M, 16 h; control = 100%; ratio to β-actin mRNA
Protocol: 1a. In the human hepatocytoma cell line HepG2, which is recognized everywhere as model, the LDL receptor mRNA levels are increased by the compounds of the formula I (Table I).
(§1) The mRNA was prepared by the method described by Chomczynski, P. and Sacchi, N., in Anal. Biochem. 162, 156-159 (1987). In the case of organs (such as, for example, liver), the deep-frozen tissue was previously homogenized on dry ice in a mortar, and the mRNA was further concentrated by means of oligo dT by standard methods (cf. Sambrook, J., Fritsch, E. F. and Maniatis, T., Molecular Cloning, second edition, Cold Spring Harbor (1989); this collection of methods also includes descriptions of all the other relevant standard processes of molecular biology used here). 5 to […] of the dissolved mRNA obtained in this way were denatured by standard processes and fractionated on 1% horizontal agarose gels. The mRNA was transferred by capillary blotting to Hybond N membranes (Amersham). Used as specific hybridization probe was a partial LDL receptor cDNA clone and as internal standard was a plasmid which contained a β-actin gene. Both plasmids were labeled using a random primer kit from Amersham to a specific activity of 5×10^9 cpm/μg. Prehybridization, hybridization and washing of the filters took place by standard processes. The filters were subsequently exposed on Cronex 4 films (Dupont) in the presence of an intensifying screen at -70° C. overnight or for up to 14 days, and the hybridization signals were quantified from the intensity of blackening of the film using a commercially available laser densitometer. Subsequently, the quotient of the intensity of the LDL receptor band and of the actin band was determined as internal standard to correct for variations in yield.
The HepG2 cells were incubated in RPMI 1640 standard medium with fetal calf serum (final concentration 10%). Serum-free RPMI medium was used as induction control. Subsequently, the complete mRNA was prepared and, by means of the Northern blot technique, the relevant LDL receptor mRNA and β-actin mRNA levels were determined. The quotient of the LDL receptor mRNA signal and of the β-actin mRNA signal of the control (without added substance) was set equal to 100%, and the stimulation above this of the LDL receptor mRNA levels achieved under the influence of the compounds was expressed as percentage of the control.

LDL receptor mRNA [3] = experiment: Stimulation of LDL receptor mRNA expression in rat livers (Northern blot); format: in vivo; conditions: rat liver, 30 mg/kg, 6 hours after administration; untreated control = 100%
Protocol: 1b. The LDL receptor mRNA levels are also raised in rat livers by compounds of the formula I within a few hours (Table II).
as §1
Liver tissue was removed and shock-frozen in liquid nitrogen.
Subsequently, the mRNA was isolated as described and, by means of the Northern blot technique, the relative LDL receptor mRNA levels were determined. The mRNA level of untreated control animals was set equal to 100%, and the stimulation of the LDL receptor mRNA was calculated as a percentage of the […]

serum lipoproteins = experiment: Effect on serum lipoproteins of normolipemic male rats in a subchronic experiment; format: in vivo; conditions: Rattus norvegicus, po, by stomach tube, 7 administrations; for change in vivo at 10 mg/kg: 10 mg/kg/day; for change in vivo at 30 mg/kg: 30 mg/kg/day; for change in vivo at 1 mg/kg: 1 mg/kg/day; for change in vivo at 3 mg/kg: 3 mg/kg/day
Outline: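 Male HOE: WISKf rats (>180 g, 10/group) dosed orally by stomach tube once daily for 7 days in 1% aqueous Tylose; fasted 24 h and bled 24 h after last dose. Pooled serum ultracentrifuged into VLDL (d<1.006) and LDL (d 1.006–1.04); cholesterol and triglycerides measured enzymatically, protein by Lowry.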

[4] = read-out: Serum LDL cholesterol, % change from control at end of treatment
[5] = read-out: Serum LDL protein, % change from control at end of treatment
[6] = read-out: Serum VLDL cholesterol, % change from control at end of treatment
[7] = read-out: Serum VLDL protein, % change from control at end of treatment
[8] = read-out: Serum VLDL triglycerides, % change from control at end of treatment

With `CCCN(C(=O)c1cnc(N2CC(C)(C)NC2=O)nc1N)c1cccc(C(F)(F)F)c1` [Example 33] the “1 part by mass dissolves in ... parts by H2O” value [1] was 22.8 parts by H2 O, the solubility [1] was 42 mg/mL and the activity at 2 µM (LDL receptor mRNA [2]) was 205%. The “LDL receptor mRNA” value (LDL receptor mRNA [3]) was 350%, the change in vivo at 10 mg/kg (serum lipoproteins; [4]) was -47% and the change in vivo at 10 mg/kg (serum lipoproteins; [5]) was -33%. It also gave a change in vivo at 10 mg/kg (serum lipoproteins; [6]) of 48%, a change in vivo at 10 mg/kg (serum lipoproteins; [7]) of -29% and a change in vivo at 10 mg/kg (serum lipoproteins; [8]) of -73%. The change in vivo at 30 mg/kg (serum lipoproteins; [4]) was -67%, the change in vivo at 30 mg/kg (serum lipoproteins; [5]) was 44% and the change in vivo at 30 mg/kg (serum lipoproteins; [6]) was -95%. It also gave a change in vivo at 30 mg/kg (serum lipoproteins; [7]) of -33% and a change in vivo at 30 mg/kg (serum lipoproteins; [8]) of -100%.

In the case of `CCN(C(=O)c1cnc(N2CC(C)(C)NC2=O)nc1N)c1cccc(C(F)(F)F)c1` [Example 2, 4-amino-2-(4,4-dimethyl-2-oxo-1-imidazolidinyl)pyrimidine-5-carboxylic acid N-ethyl-N-(3-trifluoromethylphenyl)amide hydrochloride], the activity at 2 µM (LDL receptor mRNA [2]) is reported as 175%, the “LDL receptor mRNA” value (LDL receptor mRNA [3]) is reported as 300% and the change in vivo at 1 mg/kg (serum lipoproteins; [4]) is reported as -28%. For the same compound, the change in vivo at 1 mg/kg (serum lipoproteins; [5]) was -44%, the change in vivo at 1 mg/kg (serum lipoproteins; [6]) was -22% and the change in vivo at 3 mg/kg (serum lipoproteins; [4]) was 40%. It also gave a change in vivo at 3 mg/kg (serum lipoproteins; [5]) of -28%, a change in vivo at 3 mg/kg (serum lipoproteins; [6]) of -30% and a change in vivo at 3 mg/kg (serum lipoproteins; [7]) of -7%. The change in vivo at 3 mg/kg (serum lipoproteins; [8]) was 40%, the change in vivo at 10 mg/kg (serum lipoproteins; [4]) was -32% and the change in vivo at 10 mg/kg (serum lipoproteins; [5]) was -28%. The change in vivo at 10 mg/kg (serum lipoproteins; [6]) was -41%, the change in vivo at 10 mg/kg (serum lipoproteins; [7]) was -28% and the change in vivo at 10 mg/kg (serum lipoproteins; [8]) was -26%. For the same compound, the change in vivo at 30 mg/kg (serum lipoproteins; [4]) was -75%, the change in vivo at 30 mg/kg (serum lipoproteins; [5]) was -73% and the change in vivo at 30 mg/kg (serum lipoproteins; [6]) was -96%. It also gave a change in vivo at 30 mg/kg (serum lipoproteins; [7]) of 40% and a change in vivo at 30 mg/kg (serum lipoproteins; [8]) of -81%.

With `C=CCN(C(=O)c1cnc(N2CC(C)(C)NC2=O)nc1N)c1cccc(C(F)(F)F)c1` [Example 40] the “1 part by mass dissolves in ... parts by H2O” value [1] was 12.1 parts by H2 O, the solubility [1] was 76.6 mg/mL and the activity at 2 µM (LDL receptor mRNA [2]) was 180%. The “LDL receptor mRNA” value (LDL receptor mRNA [3]) was 340%, the change in vivo at 3 mg/kg (serum lipoproteins; [4]) was -22% and the change in vivo at 3 mg/kg (serum lipoproteins; [5]) was -18%. It also gave a change in vivo at 3 mg/kg (serum lipoproteins; [6]) of -19%, a change in vivo at 3 mg/kg (serum lipoproteins; [7]) of -11% and a change in vivo at 10 mg/kg (serum lipoproteins; [4]) of -53%. It also gave a change in vivo at 10 mg/kg (serum lipoproteins; [5]) of -38%, a change in vivo at 10 mg/kg (serum lipoproteins; [6]) of -40% and a change in vivo at 10 mg/kg (serum lipoproteins; [7]) of -41%. For the same compound, the change in vivo at 10 mg/kg (serum lipoproteins; [8]) was -2%, the change in vivo at 30 mg/kg (serum lipoproteins; [4]) was -58% and the change in vivo at 30 mg/kg (serum lipoproteins; [5]) was -52%. It also gave a change in vivo at 30 mg/kg (serum lipoproteins; [6]) of -57%, a change in vivo at 30 mg/kg (serum lipoproteins; [7]) of -52% and a change in vivo at 30 mg/kg (serum lipoproteins; [8]) of -41%.
